Results published in the NIST ThermoML archive (doi:10.1021/je100507n).

What was measured:
[1] = for mass density: 101.33 kPa, Buoyancy - hydrostatic balance with magnetic suspension - one sinker; for mass density / surface tension liquid-gas: Liquid; for surface tension liquid-gas: Ring tensiometer
[2] = Molar enthalpy of transition or fusion

CCCC[n+]1ccccc1.O=S(=O)([N-]S(=O)(=O)C(F)(F)F)C(F)(F)F [1-butylpyridinium bis[(trifluoromethyl)sulfonyl]imide]
Conditions	Molar enthalpy of transition or fusion, [2] [kJ/mol]	mass density, [1] [kg/m3]	surface tension liquid-gas, [1] [mN/m]
298.15 K	–	1454.7	33.4
303.15 K	–	1450.6	33.2
308.15 K	–	1446.2	32.9
313.15 K	–	1441.7	32.8
318.15 K	–	1437.2	32.4
323.15 K	–	1433.2	32.1
328.15 K	–	1429.1	32
333.15 K	–	1424.5	31.8
338.15 K	–	1420.5	–
Crystal	27.9	–	–

Conditions	Normal melting temperature [°C]
[1], Crystal, DTA	25.90

CC[n+]1ccccc1.O=S(=O)([N-]S(=O)(=O)C(F)(F)F)C(F)(F)F [1-ethylpyridinium bis[(trifluoromethyl)sulfonyl]imide]
Conditions	Glass transition temperature [°C]	Molar enthalpy of transition or fusion [kJ/mol]	Normal melting temperature [°C]	Triple point temperature [K]	mass density [kg/m3]	surface tension liquid-gas [mN/m]
[1], 288.15 K	–	–	–	–	1545.7	37.7
[1], 293.15 K	–	–	–	–	1541.4	37.6
[1], 298.15 K	–	–	–	–	1537.5	37.4
[1], 303.15 K	–	–	–	–	1533.2	37.1
[1], 308.15 K	–	–	–	–	1529.1	36.9
[1], 313.15 K	–	–	–	–	1524.9	36.7
[1], 318.15 K	–	–	–	–	1520.5	36.6
[1], 323.15 K	–	–	–	–	1516.4	36.4
[1], 328.15 K	–	–	–	–	1512.2	36.1
[1], 333.15 K	–	–	–	–	1507.8	35.9
[1], 338.15 K	–	–	–	–	1503.7	35.6
[1], Crystal 1, DTA	–	–	30.50	–	–	–
[1], Crystal 2, DTA	–	–	–	292.8	–	–
[1], DTA	-37.91	–	–	–	–	–
[2], Crystal 1	–	18.9	–	–	–	–

CCCCC[n+]1ccccc1.O=S(=O)([N-]S(=O)(=O)C(F)(F)F)C(F)(F)F [1-pentylpyridinium bis(trifluoromethylsulfonyl)amide]
Conditions	Glass transition temperature [°C]	Molar enthalpy of transition or fusion [kJ/mol]	mass density [kg/m3]	surface tension liquid-gas [mN/m]
[1], 283.15 K	–	–	1433.1	33.1
[1], 288.15 K	–	–	1429.6	32.8
[1], 293.15 K	–	–	1425.9	32.7
[1], 298.15 K	–	–	1421.4	32.5
[1], 303.15 K	–	–	1416.9	32.2
[1], 308.15 K	–	–	1412.8	32
[1], 313.15 K	–	–	1408.3	31.8
[1], 318.15 K	–	–	1403.8	31.5
[1], 323.15 K	–	–	1398.9	31.3
[1], 328.15 K	–	–	1394.2	31.1
[1], 333.15 K	–	–	1389.3	30.8
[1], 338.15 K	–	–	1385.1	30.5
[1], DTA	-76.93	–	–	–
[2], Crystal	–	22.8	–	–

Conditions	Normal melting temperature [°C]
[1], Crystal, DTA	-0.31
